# Data reported in patent publication US12064516B2, “Pharmaceutical formulations and uses thereof” (Aldeyra Therapeutics, Inc., priority 2020, dated 2024).
# Read-outs that look alike come from different tables or passages of the source.
# Test: Pharmacokinetics of compound I-1 in the dog by intravenous, oral gavage and oral capsule routes
# Type: in vivo, beagle dogs
# Conditions: male, beagle, dog, plasma; for concentration at 4 h / concentration at 8 h / concentration at 12 h / concentration at 0.25 h / concentration at 0.5 h / concentration at 1 h / concentration at 2 h: read-out: Concentration at time point; for bioavailability: read-out: BioA (bioavailability)
# Protocol: A pharmacokinetic study was conducted to compare the bioavailability of capsule and suspension oral formulations vs. an intravenous formulations.
# The standard curve was prepared from 1 to 2,000 ng/mL. QC samples were prepared at […]. Dilution QCs were prepared at 10-fold dilution. Deuterated (d6) I-1 (compound 1-7) was used as an internal standard. A 50 μL aliquot of sample was added to 150 μL of cold internal standard in acetonitrile to effect protein precipitation. The resulting supernatants were analyzed by LCMS. Diluted sample data was utilized only for over-the-curve results.
# Briefly, 9 male non-naïve beagle dogs were assigned in groups of 3 to 3 dose groups. Group 1 was dosed 3 mg/kg by the intravenous route in a vehicle of 20% sulfobutylether-β-cyclodextrin (SBECD). Group 2 was dosed 10 mg/kg by the oral gavage route in a vehicle of 0.5% methylcellulose (MC). Group 3 was dosed with 100 mg capsules.
# The I-1 100 mg capsules are manufactured as a non-sterile spray dried, granulated powder blend. The blend is then filled into capsules for oral delivery. The capsules are packaged in high-density polyethylene bottles. The quantitative composition of the I-1 100 mg capsule is presented above in Table B.
# Procedure: (PO) gavage: formulations will be administered via a rubber oral gavage tube followed by a 10 mL flush with drinking water. (PO) tablet: tablets will be administered orally by placing the tablet in the back of the throat followed by a 10 mL flush with water.
# Frequency: Pre-dose, 5, 15, 30 min, 1, 2, 4, 8, and 12 hrs post-dose (IV); pre-dose, 15, 30 min, 1, 2, 4, 8, and 12 hrs post-dose (PO by gavage and PO by capsule).
# Blood collection: each blood sample will be collected from the dog's jugular vein or other accessible vein via direct venepuncture, placed into a pre-labeled tube containing K2EDTA and kept on ice until centrifugation.
# Plasma preparation and storage: Certifuged at 4 C at 3,000× for 5 mm. Stored in a freezer until analysed.
# Pharmacokinetics package PKSolver2.0™ has been validated against WinNonLin™ as a tool for non-GLP studies and was used to process the pharmacokinetic data.
# For each route, the average data were processed with non-compartmental, one compartment, and two compartment models. The models were assessed for goodness of fit and the accuracy of the model to assess the biphasic data, with either a) no weighting, b) 1/concentration observed, or c) 1/concentration observed squared. 1/concentration predicted, and 1/concentration predicted squared weightings were also assessed for best fit. […] The zeros were averaged with the 71.5 value for a resulting average of 23.8. For the In Group 2 (PO Gavage) subject 3 experienced 30 mL of emesis, so the dose assigned to that subject was 7.46. In all cases, the subjects were modelled individually, and the individual PK parameters were averaged to provide final parameters.
# For group 1 (intravenous) the final model selected was a two compartment model with 1/concentration observed squared weighting.
# For group 2 (oral gavage) the final model was a two compartment extravascular model with 1/concentration predicted squared weighting.
# For group 3 (oral capsule) the final model was a one compartment extravascular model with a lag time and no weighting. […] The body weight of each animal was used to assign a mg/kg dose to each individual. Subject 1 was dosed at 7.69 mg/kg. Subject 2 was 6.94 mg/kg, and Subject 3 was 6.99 mg/kg.
# [1] = oral, 7 mg/kg, Group 3: PO Capsule 7 mg/kg, Subject 1
# [2] = oral, 7 mg/kg, Group 3: PO Capsule 7 mg/kg, Subject 2
# [3] = oral, 7 mg/kg, Group 3: PO Capsule 7 mg/kg, Subject 3
# [4] = oral, 7 mg/kg, Group 3: PO Capsule 7 mg/kg, Average
# [5] = oral, 7.2 mg/kg, 100 mg Capsule, average dose 7.2 mg/kg, Average
# [6] = po, 7.2 mg/kg, 100 mg Capsule, average dose 7.2 mg/kg, Average
# [7] = po, 7.2 mg/kg, 100 mg Capsule, average dose 7.2 mg/kg, Subj1
# [8] = po, 7.2 mg/kg, 100 mg Capsule, average dose 7.2 mg/kg, Subj2
# [9] = po, 7.2 mg/kg, 100 mg Capsule, average dose 7.2 mg/kg, Subj3
# [10] = po, 10 mg/kg, Group 2: PO Gavage 10 mg/kg, Average
# [11] = po, 10 mg/kg, Group 2: PO Gavage 10 mg/kg, Subject 1
# [12] = po, 10 mg/kg, Group 2: PO Gavage 10 mg/kg, Subject 2
# [13] = po, 10 mg/kg, Group 2: PO Gavage 10 mg/kg, Subject 3
# [14] = po, 10 mg/kg, Oral Gavage 0.5% Methylcellulose 10 mg/kg, Average
# [15] = po, 10 mg/kg, Oral Gavage 0.5% Methylcellulose 10 mg/kg, Subj1
# [16] = po, 10 mg/kg, Oral Gavage 0.5% Methylcellulose 10 mg/kg, Subj2
# [17] = po, 10 mg/kg, Oral Gavage 0.5% Methylcellulose 10 mg/kg, Subj3
smiles,measurement,setting,value
CC(C)(O)c1nc2ccccc2cc1N [I-1],concentration at 4 h,[1],1070 ng/mL
same,concentration at 4 h,[2],736 ng/mL
same,concentration at 4 h,[3],1150 ng/mL
same,concentration at 8 h,[4],223 ng/mL
same,concentration at 8 h,[1],195 ng/mL
same,concentration at 8 h,[2],147 ng/mL
same,concentration at 8 h,[3],327 ng/mL
same,concentration at 12 h,[4],94.5 ng/mL
same,concentration at 12 h,[1],58.7 ng/mL
same,concentration at 12 h,[2],58 ng/mL
same,concentration at 12 h,[3],167 ng/mL
same,Tmax,[5],2.37 h
same,bioavailability,[5],83%
same,concentration at 0.25 h,"oral, 100 mg, Group 3: PO Capsule 7 mg/kg, Average",23.8 ng/mL
same,concentration at 0.25 h,"oral, 100 mg, Group 3: PO Capsule 7 mg/kg, Subject 2",71.5 ng/mL
same,AUC(0-inf),[6],8170 ng·h/mL
same,AUC(0-t),[6],8080 ng·h/mL
same,Cmax,[6],1700 ng/mL
same,half-life,[6],1.33 h
same,AUC(0-inf),[7],7350 ng·h/mL
same,AUC(0-t),[7],7240 ng·h/mL
same,Cmax,[7],1390 ng/mL
same,Tmax,[7],2.57 h
same,half-life,[7],1.38 h
same,AUC(0-inf),[8],5610 ng·h/mL
same,AUC(0-t),[8],5490 ng·h/mL
same,Cmax,[8],986 ng/mL
same,Tmax,[8],2.37 h
same,half-life,[8],1.49 h
same,AUC(0-inf),[9],11600 ng·h/mL
same,AUC(0-t),[9],11500 ng·h/mL
same,Cmax,[9],2730 ng/mL
same,Tmax,[9],2.16 h
same,half-life,[9],1.1 h
same,concentration at 0.25 h,[10],2480 ng/mL
same,concentration at 0.25 h,[11],3360 ng/mL
same,concentration at 0.25 h,[12],2760 ng/mL
same,concentration at 0.25 h,[13],1310 ng/mL
same,concentration at 0.5 h,[10],4320 ng/mL
same,concentration at 0.5 h,[11],5400 ng/mL
same,concentration at 0.5 h,[12],4290 ng/mL
same,concentration at 0.5 h,[13],3260 ng/mL
same,concentration at 1 h,[10],2700 ng/mL
same,concentration at 1 h,[11],2970 ng/mL
same,concentration at 1 h,[12],2610 ng/mL
same,concentration at 1 h,[13],2520 ng/mL
same,concentration at 2 h,[10],1420 ng/mL
same,concentration at 2 h,[11],1890 ng/mL
same,concentration at 2 h,[12],1470 ng/mL
same,concentration at 2 h,[13],908 ng/mL
same,concentration at 4 h,[10],787 ng/mL
same,concentration at 4 h,[11],909 ng/mL
same,concentration at 4 h,[12],909 ng/mL
same,concentration at 4 h,[13],541 ng/mL
same,concentration at 8 h,[10],157 ng/mL
same,concentration at 8 h,[11],131 ng/mL
same,concentration at 8 h,[12],233 ng/mL
same,concentration at 8 h,[13],108 ng/mL
same,concentration at 12 h,[10],45.1 ng/mL
same,concentration at 12 h,[11],28.1 ng/mL
same,concentration at 12 h,[12],59.1 ng/mL
same,concentration at 12 h,[13],48.1 ng/mL
same,AUC(0-inf),[14],9550 ng·h/mL
same,AUC(0-t),[14],9360 ng·h/mL
same,Cmax,[14],3560 ng/mL
same,Tmax,[14],0.518 h
same,half-life,[14],3.02 h
same,bioavailability,[14],75%
same,AUC(0-inf),[15],11200 ng·h/mL
same,AUC(0-t),[15],11100 ng·h/mL
same,Cmax,[15],4350 ng/mL
same,Tmax,[15],0.459 h
same,half-life,[15],2.85 h
same,AUC(0-inf),[16],10100 ng·h/mL
same,AUC(0-t),[16],9910 ng·h/mL
same,Cmax,[16],3670 ng/mL
same,Tmax,[16],0.46 h
same,half-life,[16],2.13 h
same,AUC(0-inf),[17],7330 ng·h/mL
same,AUC(0-t),[17],7050 ng·h/mL
same,Cmax,[17],2650 ng/mL
same,Tmax,[17],0.635 h
same,half-life,[17],4.08 h
